In patent publication US20250302927A1, “MODIFIED FACTOR XA POLYPEPTIDES AND METHODS OF USE” (The United States of America, as represented by the …, priority 2022, published 2025):

Tests used:
[1] = test system: Male CD-1 mice; test: Tail clip bleeding model; format: in vivo; conditions: for Bleeding profile (bleeding graphs): apixaban 4 mg/kg, FIG. 4D
Method: Tail clip bleeding model: Animal experiments were performed at the U.S. FDA/CBER Division of Veterinary Services in accordance with the protocol approved by the institutional animal care and use committee (IACUC). Male CD-1 mice (Charles River Laboratories, Kingston, NY, USA) were 5-8 weeks old weighing 28-34 grams. […] After 5 minutes, 3 mm of tail were cut, after which the tail was immersed in a tube with predefined volume of 0.9% NaCl at 37° C. and allowed to bleed for 30 minutes under close observation. Blood loss was determined by measuring hemoglobin content and expressed as μl/mouse.
The design of the in vivo study in mice is depicted in FIG. 3B. […] The tails of the mice were clipped, and bleeding monitored by measuring bleeding time (FIG. 3C) and blood loss (FIG. 3D). […] All bleeding episodes were plotted using the length and number of episodes of bleeds for each individual mouse (FIG. 3E) to determine the bleeding profiles.
Additional experiments were performed in the mouse model, as above, but with the inclusion of andexanet alfa for comparison. The experimental strategy is depicted in FIG. 4A.

[2] = biological target: T1, Factor VII (FVII) (Homo sapiens, UniProt P08709); test: 1H NMR binding of apixaban to Factor VII; conditions: stoichiometric amounts, FIG. 1H
T1 sequence (P08709 61-466): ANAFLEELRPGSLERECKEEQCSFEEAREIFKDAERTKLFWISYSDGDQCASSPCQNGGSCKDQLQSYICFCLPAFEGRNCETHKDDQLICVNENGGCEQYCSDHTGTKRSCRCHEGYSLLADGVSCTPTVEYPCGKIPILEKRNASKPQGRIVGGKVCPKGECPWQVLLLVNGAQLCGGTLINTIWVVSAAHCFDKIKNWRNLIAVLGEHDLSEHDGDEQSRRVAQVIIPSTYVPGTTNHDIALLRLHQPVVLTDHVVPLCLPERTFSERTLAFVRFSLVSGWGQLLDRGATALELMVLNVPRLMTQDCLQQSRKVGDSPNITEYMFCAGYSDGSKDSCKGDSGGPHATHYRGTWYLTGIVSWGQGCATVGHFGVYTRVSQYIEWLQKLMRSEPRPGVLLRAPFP
Source text: FIGS. 1A-1H show design and functional characterization of low affinity FXa variants. FIG. 1A illustrates the computational strategy using RosettaDesign and homology insertion. […] Variants 69 and 70 are located on the same region between H311 and T318. […] FIG. 1F is a graph showing the rate of chromogenic substrate cleavage in pure buffer systems by FXa variants at different concentrations. […] Values for IC50±SD were obtained from fitted curves. […] The top spectrum is the result of superposition of ligand and protein signals with no alteration. The reference NMR spectrum (middle) contains only sharp signals, as expected for an NMR spectrum of a small molecule.
The final models allowed identification of clashes with apixaban. Following manual inspection of the models, 21 designs were selected. […] (ii) Two proteins were used as homology models to identify potential mutations to include as insertions. The human factor VII (FVII) (PDB ID: 1DAN) crystal structure was superimposed onto the human FXa (PDB ID: 2P16) crystal structure and differences in amino acid identity were analyzed. Final insertion identities were based on proximity to binding pocket and length. […] Seven FXa variants were selected based on this strategy. Some of these designs failed experimental validations. In a follow up round of homology-based designs, the insertions from Factor VII were decreased in length and number. […]

[3] = Inhibition of FXa variant chromogenic substrate cleavage by apixaban (IC50); format: biochemical, human; conditions: for IC50: apixaban, fixed amounts of FXa variants, increasing apixaban concentrations
Method: Chromogenic FXa activity assay: The FXa activity assay based on CS11(65)a chromogenic substrate (Biophen) was performed as described below. […] For each sample, substrate cleavage was calculated by taking the average rate over the time frame between 1 and 2 minutes.
Activity and inhibitory concentration were determined for a larger series of variants (FIGS. 2A and 2B). Activities for all variants were determined using the rate of chromogenic substrate cleavage in pure buffer system at different FXa concentrations. Variants were assigned into five brackets (FIG. 2A). […] To be assigned as potentially beneficial the combined scores were ***** but the individual score could not be less than **.

[4] = test system: tissue factor (TF)-triggered pooled normal human plasma; test: Thrombin generation assay in plasma spiked with apixaban; format: biochemical
Method: Thrombin generation assay: The procoagulant activity of FXa variants was evaluated by a previously described thrombin generation assay in tissue factor (TF)-triggered pooled normal human plasma (Affinity Biologicals Inc, Ontario, Canada). […] Fluorescence (product of thrombin substrate consumption) was recorded in a kinetic mode at 37° C. using a Tecan Infinite F500 every 45 seconds for a period of 1.7 hours. In-house software was used to calculate calibrate thrombin generation assay (using an internal thrombin calibrator CAT® from Stago, Parsippany, NJ, USA) and calculate thrombin peak height parameter.

[5] = biological target: T2, Tissue factor pathway inhibitor (TFPI) (Homo sapiens, UniProt P10646); test: ACTICHROME TFPI assay; format: biochemical; conditions: 4 nM variants vs 100 nM andexanet alfa, FIG. 5
T2 construct: BioMedica Diagnostics (assay kit)
T2 sequence (P10646 29-304): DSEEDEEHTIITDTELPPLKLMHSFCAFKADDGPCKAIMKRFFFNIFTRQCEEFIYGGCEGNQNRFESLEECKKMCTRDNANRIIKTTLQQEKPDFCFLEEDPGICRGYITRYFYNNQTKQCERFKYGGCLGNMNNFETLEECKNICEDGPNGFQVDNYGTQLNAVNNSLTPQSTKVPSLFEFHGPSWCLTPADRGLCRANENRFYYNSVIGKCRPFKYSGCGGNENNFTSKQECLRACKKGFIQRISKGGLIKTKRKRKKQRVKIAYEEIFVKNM
Method: Tissue factor pathway inhibitor (TFPI) plays a very important role in regulation of the procoagulant activity of tissue factor (TF). […] TFPI activity was determined using ACTICHROME® TFPI assay (BioMedica Diagnostics) according to manufacturer's protocol.

[6] = biological target: Tissue factor pathway inhibitor (TFPI), P10646

COc1ccc(-n2nc(C(N)=O)c3c2C(=O)N(c2ccc(N4CCCCC4=O)cc2)CC3)cc1 [apixaban, reference compound]
Bleeding profile (bleeding graphs) [1]: mostly uninterrupted flow of blood
Bleeding time, apixaban group compared to the control group ([1]; tail clip, FIG. 3C): significantly greater
binding to FVII by NMR [2]: does not bind to FVII

Variant 61: modified Factor Xa polypeptide, W439A, S4 subsite, SEQ ID NO: 2
Bleeding time ([1]; 1 mg/kg infused 5 min after apixaban, FIG. 3C): significantly reduced bleeding time
Blood loss ([1]; 1 mg/kg infused 5 min after apixaban, FIG. 3D): successfully reversed the anticoagulant effect of apixaban
Bleeding profile (bleeding graphs) [1]: multiple breaks in blood flowing from the tail cut
Bleeding time ([1]; apixaban dose of 4 mg/kg, FIG. 4B): significant decrease
Blood loss ([1]; apixaban dose of 4 mg/kg, FIG. 4C): significant decrease
fold higher IC50 values for apixaban compared to the wild-type FXa ([3]; FIG. 1G): ~350 fold
IC50 [3]: > 251 nM
Km ([4]; activity in the presence of a fixed amount (1 μM) of apixaban, read-out: apparent Km): 1.1 ± 0.171 µM
potency compared with wild type FXa ([4]; thrombin generation assay as worded): less potent than wild type FXa
response to TFPI (TFPI activity) [5]: much smaller response to TPFI compared to andexanet alfa

Variant 65: modified Factor Xa polypeptide, G440A, S1 subsite, SEQ ID NO: 8
IC50 [3]: 151 to 250 nM

B1: FXa variant 70 (amino acids 312-317 replaced with STYVPG) (protein)
chain: GPANSFLEEMKKGHLERECMEETCSYEEAREVFEDSDKTNEFWNKYKDGDQCETSPCQNQGKCKDGLGEYTCTCLEGFEGKNCELFTRKLCSLDNGDCDQFCHEEQNSVVCSCARGYTLADNGKACIPTGPYPCGKQTLERRKRSVAQATSSSGEAPDSITWKPYDAADLDPTENPFDLLDFNQTQPERGDNNLTRIVGGQECKDGECPWQALLINEENEGFCGGTILSEFYILTAAHCLYQAKRFKVRVGDRNTEQEEGGEAVHEVEVVIKHSTYVPGTYDFDIAVLRLKTPITFRMNVAPACLPERDWAESTLMTQKTGIVSGFGRTHEKGRQSTRLKMLEVPYVDRNSCKLSSSFIITQNMFCAGYDTKQEDACQGDSGGPHVTRFKDTYFVTGIVSWGEGCARKGKYGIYTKVTAFLKWIDRSMKTRGLPKAKSHAPEVITSSPLK
TFPI activity (ACTICHROME TFPI assay) [6]: both variants #61 and #70 showed much smaller response to TPFI compared to andexanet alfa
